In patent US20230210853A1 (Halia Therapeutics, Inc., priority 2020, published 2023):

Target: T1, full-length recombinant human NEK7 (Homo sapiens, UniProt Q8TDX7)
T1 construct: full-length recombinant human NEK7; GST (N); purchased SignalChem N09-10G; host or cells: Sf9 insect cells (baculovirus)
Assay: NEK7 enzymatic assay ([33P]-ATP, casein substrate)
Format: biochemical
Summary of the method: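 GST-tagged enzyme, baculovirus-expressed in Sf9 cells, was mixed with casein in 20 mM Hepes pH 7.5, 10 mM MgCl2, 1 mM EGTA, 0.02% Brij35, 2 mM DTT, 1% DMSO. Compounds (3-fold series, 10 μM–0.5 nM) were preincubated 20 min at RT, then [33P]-ATP was added for 2 h at RT. P81 filter-bound radioactivity was expressed as % of vehicle activity and fitted to IC50.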

[1] = Table 2b, recombinant human NEK7, casein substrate
[2] = Table 2a, recombinant human NEK7, casein substrate
[3] = Table 2e, recombinant human NEK7, casein substrate
[4] = Table 2d, recombinant human NEK7, casein substrate
[5] = comparative compounds of Structure (II)

T1 sequence (Q8TDX7 whole entry): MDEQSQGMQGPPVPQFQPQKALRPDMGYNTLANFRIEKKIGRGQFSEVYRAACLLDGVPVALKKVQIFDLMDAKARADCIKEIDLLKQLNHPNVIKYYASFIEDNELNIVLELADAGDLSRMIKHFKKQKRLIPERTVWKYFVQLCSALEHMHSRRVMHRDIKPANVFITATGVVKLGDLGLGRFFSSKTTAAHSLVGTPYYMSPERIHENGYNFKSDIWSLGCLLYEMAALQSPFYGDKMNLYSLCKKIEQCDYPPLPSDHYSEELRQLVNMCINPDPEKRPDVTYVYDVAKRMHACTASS

CC(C)(C)c1cc(NC(=O)Nc2ccc(Oc3ncnc4[nH]ccc34)cc2F)n(-c2ccccc2)n1 [Ib-3, 1-(4-((7H-pyrrolo[2,3-d]pyrimidin-4-yl)oxy)-2-fluorophenyl)-3-(3-(tert-butyl)-1-phenyl-1H-pyrazol-5-yl)urea]
IC50 [1]: > 1.5 µM

O=C(Nc1ccc(Oc2ccnc3[nH]cc(Cl)c23)cc1F)Nc1cc(C2(C(F)(F)F)CC2)nn1-c1ccccc1 [Ib-17, 1-(4-((3-chloro-1H-pyrrolo[2,3-b]pyridin-4-yl)oxy)-2-fluorophenyl)-3-(1-phenyl-3-(1-(trifluoromethyl)cyclopropyl)-1H-pyrazol-5-yl)urea]
IC50 [1]: > 1.5 µM

CC(C)(C)c1cc(NC(=O)NC2CCC(Oc3ccnc4[nH]cc(Cl)c34)CC2)n(-c2ccccc2)n1 (stereo not drawn) [Ib-20, 1-(3-(tert-butyl)-1-phenyl-1H-pyrazol-5-yl)-3-(4-((3-chloro-1H-pyrrolo[2,3-b]pyridin-4-yl)oxy)cyclohexyl)urea]
IC50 [1]: > 1.5 µM

CC(C)(C)c1cc(NC(=O)Nc2ccc(-c3nn(C4CCC(O)CC4)c4ncnc(N)c34)cc2F)on1 (stereo not drawn) [Ia-15]
IC50 [2]: < 0.15 µM

CC(C)(C)c1cc(NC(=O)Nc2cc(F)c(Oc3ccnc4[nH]cc(Cl)c34)cc2F)n(-c2ccccc2)n1 [Ib-15]
IC50 [1]: > 1.5 µM

CN(C)C1CN(Cc2ccc(NC(=O)Nc3ccc(Oc4ccnc5[nH]cc(Cl)c45)cc3F)cc2C(F)(F)F)C1 [Ie-8, 1-(4-((3-chloro-1H-pyrrolo[2,3-b]pyridin-4-yl)oxy)-2-fluorophenyl)-3-(4-((3-(dimethylamino)azetidin-1-yl)methyl)-3-(trifluoromethyl)phenyl)urea]
IC50 [3]: > 1.5 µM

CN(C)C1CCN(Cc2ccc(NC(=O)Nc3ccc(-c4cn(C5CC5)c5ncnc(N)c45)cc3F)cc2C(F)(F)F)CC1 [Id-68]
IC50 [4]: < 0.15 µM

CC(C)n1nc(-c2ccc(NC(=O)Nc3cc(C(C)(C)C)no3)c(Cl)c2)c2c(N)ncnc21 [Ia-6]
IC50 [2]: 0.501 to 1.5 µM

CC(C)(C)c1cc(NC(=O)Nc2ccc(-c3nn(C4COC4)c4ncnc(N)c34)cc2F)no1 [Ia-23, 1-(4-(4-amino-1-(oxetan-3-yl)-1H-pyrazolo[3,4-d]pyrimidin-3-yl)-2-fluorophenyl)-3-(5-(tert-butyl)isoxazol-3-yl)urea]
IC50 [2]: < 0.15 µM

CCN1CCN(Cc2ccc(NC(=O)Nc3ccc(-c4cn(C5CC5)c5ncnc(N)c45)cc3F)cc2C(F)(F)F)CC1 [Id-40, 1-(4-(4-amino-7-cyclopropyl-7H-pyrrolo[2,3-d]pyrimidin-5-yl)-2-fluorophenyl)-3-(4-((4-ethylpiperazin-1-yl)methyl)-3-(trifluoromethyl)phenyl)urea]
IC50 [4]: < 0.15 µM

CCc1cc(NC(=O)Nc2ccc(-c3nn(C4CC4)c4ncnc(N)c34)cc2F)on1 [Ia-42, 1-(4-(4-amino-1-cyclopropyl-1H-pyrazolo[3,4-d]pyrimidin-3-yl)-2-fluorophenyl)-3-(3-ethylisoxazol-5-yl)urea]
IC50 [2]: < 0.15 µM

O=C(Nc1ccc(CN2CCN(CCO)CC2)c(C(F)(F)F)c1)Nc1ccc(Oc2ccnc3[nH]cc(Cl)c23)cc1F [Ie-41, 1-(4-((3-chloro-1H-pyrrolo[2,3-b]pyridin-4-yl)oxy)-2-fluorophenyl)-3-(4-((4-(2-hydroxyethyl)piperazin-1-yl)methyl)-3-(trifluoromethyl)phenyl)urea]
IC50 [3]: > 1.5 µM

CC(C)n1nc(-c2ccc3c(c2F)CCN3C(=O)Cc2cccc(C(F)(F)F)c2)c2c(N)ncnc21 [II-1, l-(5-(4-amino-1-isopropyl-1H-pyrazolo[3,4-d]pyrimidin-3-yl)-4-fluoroindolin-1-yl)-2-(3-(trifluoromethyl)phenyl)ethan-1-one]
IC50 [5]: 0.301 to 0.5 µM

Nc1ncnc2c1c(-c1ccc3c(c1F)CCN3C(=O)Cc1cccc(C(F)(F)F)c1)nn2C1CC1 [II-4, 1-(5-(4-amino-1-cyclopropyl-1H-pyrazolo[3,4-d]pyrimidin-3-yl)-4-fluoroindolin-1-yl)-2-(3-(trifluoromethyl)phenyl)ethan-1-one]
IC50 [5]: 0.151 to 0.3 µM

Nc1ncnc2c1c(-c1ccc(NC(=O)Nc3ccc(CN4CCN(C5CC5)CC4)c(C(F)(F)F)c3)c(F)c1)cn2C1CC1 [Id-61]
IC50 [4]: 0.301 to 0.5 µM

CC(C)n1nc(-c2ccc(NC(=O)Nc3cc(C(C)(C)C)no3)c(F)c2)c2c(N)ncnc21 [Ia-11, 1-(4-(4-amino-1-isopropyl-1H-pyrazolo[3,4-d]pyrimidin-3-yl)-2-fluorophenyl)-3-(3-(tert-butyl)isoxazol-5-yl)urea]
IC50 [2]: < 0.15 µM

CN1CCN(Cc2ccc(NC(=O)Nc3ccc(-c4nn(C5CC5)c5ccnc(N)c45)cn3)cc2C(F)(F)F)CC1 [Id-50, 1-(5-(4-amino-1-cyclopropyl-1H-pyrazolo[4,3-c]pyridin-3-yl)pyridin-2-yl)-3-(4-((4-methylpiperazin-1-yl)methyl)-3-(trifluoromethyl)phenyl)urea]
IC50 [4]: 0.301 to 0.5 µM

CCN1CCN(Cc2ccc(NC(=O)Nc3ccc(-c4cn(C5CC5)c5ncnc(N)c45)cc3F)cc2)CC1 [Id-57]
IC50 [4]: > 1.5 µM

CN1CCCN(Cc2ccc(NC(=O)Nc3ccc(Oc4ccnc5[nH]cc(Cl)c45)cc3F)cc2C(F)(F)F)CC1 [Ie-17, 1-(4-((3-chloro-1H-pyrrolo[2,3-b]pyridin-4-yl)oxy)-2-fluorophenyl)-3-(4-((4-methyl-1,4-diazepan-1-yl)methyl)-3-(trifluoromethyl)phenyl)urea]
IC50 [3]: > 1.5 µM

Cc1cn(-c2ccc(NC(=O)Nc3ccc(-c4cn(C5CC5)c5ncnc(N)c45)cc3F)cc2C(F)(F)F)cn1 [Id-23]
IC50 [4]: > 1.5 µM

CN1CCC(Cc2ccc(NC(=O)Nc3ccc(Oc4ccnc5[nH]cc(Cl)c45)cc3F)cc2C(F)(F)F)CC1 [Ie-19, 1-(4-((3-chloro-1H-pyrrolo[2,3-H]pyridin-4-yl)oxy)-2-fluorophenyl)-3-(4-((1-methylpiperidin-4-yl)methyl)-3-(trifluoromethyl)phenyl)urea]
IC50 [3]: 0.501 to 1.5 µM

Cc1cn(-c2cc(NC(=O)Nc3ccc(Oc4ccnc5[nH]cc(Cl)c45)cc3F)cc(C(F)(F)F)c2)cn1 [Ie-3, 1-(4-((3-Chloro-1H-pyrrolo[2,3-b]pyridin-4-yl)oxy)-2-fluorophenyl)-3-(3-(4-methyl-1H-1-imidazol-1-yl)-5-(TRIFLUOROMETHYL)phenyl)urea]
IC50 [3]: 0.501 to 1.5 µM

Cc1cn(-c2ccc(NC(=O)Nc3ccc(-c4cn(C5CC5)c5ncnc(N)c45)cc3F)cc2C(F)(F)F)cn1 [Id-45, 1-(4-(4-amino-7-cyclopropyl-7H-pyrrolo[2,3-d]pyrimidin-5-yl)-2-fluorophenyl)-3-(4-(4-methyl-1H-imidazol-1-yl)-3-(trifluoromethyl)phenyl)urea]
IC50 [4]: 0.501 to 1.5 µM

CC(C)(C)c1cc(NC(=O)Nc2ccc(-c3nn(C4CC4)c4ncnc(N)c34)cc2)on1 [Ia-20, 1-(4-(4-amino-1-cyclopropyl-1H-pyrazolo[3,4-d]pyrimidin-3-yl)phenyl)-3-(3-(tert-butyl)isoxazol-5-yl)urea]
IC50 [2]: < 0.15 µM

CCC(C)c1cc(NC(=O)Nc2ccc(-c3nn(C4CC4)c4ncnc(N)c34)cc2F)on1 (stereo not drawn) [Ia-43, 1-(4-(4-amino-1-cyclopropyl-1H-pyrazolo[3,4-d]pyrimidin-3-yl)-2-fluorophenyl)-3-(3-(sec-butyl)isoxazol-5-yl)urea]
IC50 [2]: 0.151 to 0.3 µM

CC1(c2cc(NC(=O)Nc3ccc(-c4nn(C5CC5)c5ncnc(N)c45)cc3F)on2)CCC1 [Ia-44, 1-(4-(4-amino-1-cyclopropyl-1H-pyrazolo[3,4-d]pyrimidin-3-yl)-2-fluorophenyl)-3-(3-(1-methylcyclobutyl)isoxazol-5-yl)urea]
IC50 [2]: 0.151 to 0.3 µM

CC(C)(C)c1cc(NC(=O)Nc2ccc(Oc3ccnc4[nH]ccc34)c(C(F)(F)F)c2)n(-c2ccccc2)n1 [Ib-2, 1-(4-((1H-pyrrolo[2,3-]pyridin-4-yl)oxy)-3-(TRIFLUOROMETHYL)phenyl)-3-(3-(tert-butyl)-1-phenyl-1H-pyrazol-5-yl)urea]
IC50 [1]: > 1.5 µM

CC(C)(C)c1cc(NC(=O)Nc2ccc(-c3nn(C4CCC4)c4ncnc(N)c34)cc2)on1 [Ia-7, 1-(4-(4-amino-1-cyclobutyl-1H-pyrazolo[3,4-d]pyrimidin-3-yl)phenyl)-3-(3-(tert-butyl)isoxazol-5-yl)urea]
IC50 [2]: 0.151 to 0.3 µM

Cc1cc(NC(=O)Nc2ccc(-c3nn(C4CC4)c4ccnc(N)c34)cc2F)ccc1N1CCOCC1 [Id-55, 1-(4-(4-amino-1-cyclopropyl-1H-pyrazolo[4,3-c]pyridin-3-yl)-2-fluorophenyl)-3-(3-methyl-4-morpholino-phenyl)urea]
IC50 [4]: > 1.5 µM

CN1CCN(Cc2ccc(NC(=O)Nc3ccc(Oc4ccnc5[nH]cc(Cl)c45)cc3F)cc2C(F)F)CC1 [Ie-22, 1-(4-((3-chloro-1H-pyrrolo[2,3-b]pyridin-4-yl)oxy)-2-fluorophenyl)-3-(3-(difluoromethyl)-4-((4-methylpiperazin-1-yl)methyl)phenyl)urea]
IC50 [3]: 0.501 to 1.5 µM

Cn1nc(-c2ccc(NC(=O)Nc3cc(C(C)(C)C)no3)c(F)c2)c2c(N)ncnc21 [Ia-29, 1-(4-(4-amino-1-methyl-1H-pyrazolo[3,4-d]pyrimidin-3-yl)-2-fluorophenyl)-3-(3-(tert-butyl)isoxazol-5-yl)urea]
IC50 [2]: < 0.15 µM

Nc1ncnc2c1c(-c1ccc(NC(=O)Nc3cc(C4(C(F)(F)F)CC4)no3)nc1)nn2C1COC1 [Ia-61]
IC50 [2]: 0.151 to 0.3 µM

CN(C)C1CCN(Cc2ccc(NC(=O)Nc3ccc(-c4cn(C5CC5)c5ncnc(N)c45)cc3F)cc2C(F)(F)F)C1 (stereo not drawn) [Id-44, 1-(4-(4-amino-7-cyclopropyl-7H-pyrrolo[2,3-d]pyrimidin-5-yl)-2-fluorophenyl)-3-(4-((3-(dimethylamino)pyrrolidin-1-yl)methyl)-3-(trifluoromethyl)phenyl)urea]
IC50 [4]: < 0.15 µM
